Data as given in article PMC8329300, “X-ray crystallography reveals molecular recognition mechanism for sugar binding in a melibiose transporter MelB” (Communications Biology, 2021).

Molecular target: T1, MelBSt WT (Salmonella typhimurium, UniProt P30878)
T1 construct: Cys scanning mutagenesis for the full-length MelBSt; expressed in transfected cells; host or cells: E. coli DW2 (melA+, melB-, lacZ-Y-)
Experiment: [3H]Melibiose transport time course with DW2 intact cells expressing MelBSt WT
Assay type: cell-based
Conditions: 0.4 mM [3H]melibiose
Experimental: Fig. 1 Functional characterizations. a [^3H] Melibiose transport time course with intact cells. E. coli DW2 strain (melB^−, lacZ^−Y^−) expressed with the WT, D59C, or D59A MelBSt mutants were subjected to [^3H]melibiose active transport assay at 0.4 mM and 10 mCi/mmol in the presence of 20 mM or 100 mM NaCl or LiCl by a fast filtration method. Inset, melibiose fermentation assay. Transformants with DW2 strain were plated on MacConkey agar plates containing 30 mM melibiose as the sole carbohydrate source and pH sensor neutral red, and incubated at 37 °C for 16–18 h before imaging. Number of tests = 3, from different batch of cells or duplicate measurements from same batch of sample. b Ligand binding by Trp→dansyl galactoside (D^2G) FRET assay. Purified proteins at 1 μM concentration in 20 mM Tris-HCl, pH 7.5, 100 mM CholCl, 10% glycerol, and 0.03% UDM were subjected to steady-state fluorescence measurements as described in Methods. On the time-trace, 1.8 μL of 1 mM D^2G at 10 μM was added into 180 μL of protein solutions at 1-min point, followed by supplying 10 μL of 5 mM DDMB or 5 mM α-NPG to displace the bound D^2G. For testing Na^+ or Li^+ binding, they are added into the solution before displacement with the second sugar. The structure of DDMB or α-NPG is shown in a chair form, and the carbon positions are labeled. Glycosidic bonds are indicated by arrows. Both are α-galactosides containing a substituent at the anomeric carbon-1. The data were from duplicate measurements.
The overexpression of MelBSt was carried out in the E. coli DW2 strain (melA^+, melB^−, and lacZ^−Y^−) from a constitutive expression plasmid pK95ΔAH/MelBSt/CHis10[9],[28],[33]. The D59C or D59A mutant with Cys or Ala at the position 59, respectively, was constructed previously[9] or in this study by QuikChange Site-Directed Mutagenesis kit and confirmed by DNA sequencing analysis. E. coli DW2 cells containing a given plasmid were grown in Luria-Bertani (LB) broth (5 g yeast extract and 10 g tryptone per liter with 171 mM NaCl) with 100 mg/L of ampicillin in a 37 °C shaker. The overnight cultures were diluted by 5% with LB broth supplemented with 0.5% glycerol and 100 mg/L of ampicillin, and constitutive overexpression was obtained by shaking at 30 °C for another 5 h.
E. coli DW2 cells expressing MelBSt were washed with 100 mM KPi, pH 7.5, to remove Na^+ contamination as described previously. The cell pellets were resuspended with the assay buffer (100 mM KPi, pH 7.5, 10 mM MgSO4) and adjusted to A420 of 10 (∼0.7 mg protein/ml). Using a fast filtration, transport time course at 0.4 mM melibiose (at specific activity of 10 mCi/mmol) was carried out in the absence or presence of NaCl or LiCl at 20 mM or 100 mM, respectively, and intracellular melibiose was determined as described previously.

T1 sequence (P30878 whole entry): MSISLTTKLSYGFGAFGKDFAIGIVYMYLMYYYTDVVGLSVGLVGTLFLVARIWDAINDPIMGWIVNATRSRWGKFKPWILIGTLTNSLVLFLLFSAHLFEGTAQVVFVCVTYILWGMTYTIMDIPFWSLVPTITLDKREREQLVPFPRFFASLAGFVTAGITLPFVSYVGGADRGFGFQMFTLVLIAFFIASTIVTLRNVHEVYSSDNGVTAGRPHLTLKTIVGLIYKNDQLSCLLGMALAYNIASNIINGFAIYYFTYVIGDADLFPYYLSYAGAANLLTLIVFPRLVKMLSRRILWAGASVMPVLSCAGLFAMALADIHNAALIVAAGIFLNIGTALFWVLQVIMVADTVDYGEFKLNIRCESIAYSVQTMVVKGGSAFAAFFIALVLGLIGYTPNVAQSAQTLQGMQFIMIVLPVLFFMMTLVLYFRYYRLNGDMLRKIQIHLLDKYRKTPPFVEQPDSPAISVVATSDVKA

OC[C@H]1O[C@H](OCC2O[C@@H](O)[C@H](O)[C@@H](O)[C@@H]2O)[C@H](O)[C@@H](O)[C@H]1O (stereo partly shown) [Melibiose]
Melibiose transport (H+, Time 0.08333): 4.65 | Melibiose transport (H+, Time 0.16667): 11.5871 | Melibiose transport (H+, Time 0.5): 17.8175 | Melibiose transport (H+, Time 1): 26.1053 | Melibiose transport (H+, Time 2): 32.522 | Melibiose transport (H+, Time 5): 41.2117 | Melibiose transport (H+, Time 10): 51.4376 | Melibiose transport (H+, Time 30): 52.9751 | Melibiose transport (Li+, 20 mM, Time 0.08333): 5.082 | Melibiose transport (Li+, 20 mM, Time 0.16667): 9.37 | Melibiose transport (Li+, 20 mM, Time 0.5): 20.2553 | Melibiose transport (Li+, 20 mM, Time 1): 29.5856 | Melibiose transport (Li+, 20 mM, Time 2): 49.8958 | Melibiose transport (Li+, 20 mM, Time 5): 106.047 | Melibiose transport (Li+, 20 mM, Time 10): 190.811 | Melibiose transport (Li+, 20 mM, Time 30): 313.001 | Melibiose transport (Li+, 100 mM, Time 0.08333): 13.3342 | Melibiose transport (Li+, 100 mM, Time 0.16667): 15.8108 | Melibiose transport (Li+, 100 mM, Time 0.5): 32.509 | Melibiose transport (Li+, 100 mM, Time 1): 62.5704 | Melibiose transport (Li+, 100 mM, Time 2): 85.8864 | Melibiose transport (Li+, 100 mM, Time 5): 142.587 | Melibiose transport (Li+, 100 mM, Time 10): 325.223 | Melibiose transport (Li+, 100 mM, Time 30): 437.5 | Melibiose transport (Na+, 20 mM, Time 0.08333): 6.156 | Melibiose transport (Na+, 20 mM, Time 0.16667): 13.1731 | Melibiose transport (Na+, 20 mM, Time 0.5): 23.5532 | Melibiose transport (Na+, 20 mM, Time 1): 28.6147 | Melibiose transport (Na+, 20 mM, Time 2): 46.7036 | Melibiose transport (Na+, 20 mM, Time 5): 103.453 | Melibiose transport (Na+, 20 mM, Time 10): 203.925 | Melibiose transport (Na+, 20 mM, Time 30): 320.843 | Melibiose transport (Na+, 100 mM, Time 0.08333): 7.0516 | Melibiose transport (Na+, 100 mM, Time 0.16667): 7.9788 | Melibiose transport (Na+, 100 mM, Time 0.5): 20.0324 | Melibiose transport (Na+, 100 mM, Time 1): 44.6398 | Melibiose transport (Na+, 100 mM, Time 2): 78.2935 | Melibiose transport (Na+, 100 mM, Time 5): 118.81 | Melibiose transport (Na+, 100 mM, Time 10): 202.959 | Melibiose transport (Na+, 100 mM, Time 30): 340.508
